In patent publication US10167257B2, “Indole derivatives for use in medicine” (IOmet Pharma Ltd., priority 2014, dated 2019):

Experiments:
TDO (A172 cells) = molecular target: T1, TDO (A172 cells) (Homo sapiens, UniProt P48775); test: TDO cell-based assay (A172), kynurenine production; settings: A172 human glioblastoma cells, 500 μM L-Trp, 48 h, kynurenine by absorbance at 490 nm
T1 construct: This assay utilised cancer cells which expressed either TDO or IDO; host or cells: A172 human glioblastoma cells
T1 sequence (P48775 whole entry): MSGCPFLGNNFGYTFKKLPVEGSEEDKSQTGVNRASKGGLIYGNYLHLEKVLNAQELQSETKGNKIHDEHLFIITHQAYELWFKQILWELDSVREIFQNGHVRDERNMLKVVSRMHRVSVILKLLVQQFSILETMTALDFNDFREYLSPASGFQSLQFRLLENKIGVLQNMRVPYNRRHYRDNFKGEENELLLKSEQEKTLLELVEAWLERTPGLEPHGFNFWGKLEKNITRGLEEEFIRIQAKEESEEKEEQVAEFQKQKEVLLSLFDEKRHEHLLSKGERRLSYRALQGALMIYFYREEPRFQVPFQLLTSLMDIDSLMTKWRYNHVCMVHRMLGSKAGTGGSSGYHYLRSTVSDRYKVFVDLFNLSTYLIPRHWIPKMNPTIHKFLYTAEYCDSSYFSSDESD
Outline: (§1)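 Kynurenine output was read at 490 nm after 5 min with 1% Ehrlich's reagent, using supernatants from 48 h, 37 °C cultures containing 500 μM L-Trp and test compound. TDO activity came from A172 cells. IDO activity came from SKOV-3 cells, whose expression was induced by adding 500 ng/ml IFNγ.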

IDO (SKOV-3 cells) = molecular target: T2, IDO (SKOV-3 cells) (Homo sapiens, UniProt P14902); test: IDO cell-based assay (SKOV-3, IFNγ-induced), kynurenine production; settings: SKOV-3 ovary adenocarcinoma cells, IFNγ 500 ng/ml, 500 μM L-Trp, 48 h, kynurenine by absorbance at 490 nm
T2 construct: This assay utilised cancer cells which expressed either TDO or IDO; host or cells: SKOV-3 ovary adenocarcinoma cells, IFNγ-induced
T2 sequence (P14902 whole entry): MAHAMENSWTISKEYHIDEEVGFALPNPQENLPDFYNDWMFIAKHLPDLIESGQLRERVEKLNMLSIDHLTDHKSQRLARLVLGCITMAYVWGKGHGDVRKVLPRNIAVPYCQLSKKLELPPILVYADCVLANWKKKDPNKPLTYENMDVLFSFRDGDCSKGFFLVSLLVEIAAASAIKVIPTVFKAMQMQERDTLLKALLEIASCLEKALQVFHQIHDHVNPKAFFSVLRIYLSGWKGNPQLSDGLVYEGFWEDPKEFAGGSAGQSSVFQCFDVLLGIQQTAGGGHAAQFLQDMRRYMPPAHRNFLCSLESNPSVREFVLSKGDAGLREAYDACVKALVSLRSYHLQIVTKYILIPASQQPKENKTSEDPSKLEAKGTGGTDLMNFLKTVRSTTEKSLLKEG
Outline: as §1

O=C(NC1(c2ccccc2)CC1)c1cc2cc(Cl)c(F)cc2[nH]1 [Compound 209]
TDO cellular assay (A172) pIC50 (TDO (A172 cells)): ++ (++ = pIC50 5.00-<5.50)
IDO cellular assay (SKOV3) pIC50 (IDO (SKOV-3 cells)): +++ (+++ = pIC50 ≥5.50)

COc1ccc(-c2noc(C(C)NC(=O)c3cc4cc(Cl)ccc4[nH]3)n2)cc1OC (stereo not drawn) [Compound 131]
TDO cellular assay (A172) pIC50 (TDO (A172 cells)): − (− = pIC50 <4.50)
IDO cellular assay (SKOV3) pIC50 (IDO (SKOV-3 cells)): +++ (+++ = pIC50 ≥5.50)

Cn1cc(C2(NC(=O)c3cc4ccc(C(F)F)cc4[nH]3)CC2)cn1 [Compound 206]
TDO cellular assay (A172) pIC50 (TDO (A172 cells)): − (− = pIC50 <4.50)
IDO cellular assay (SKOV3) pIC50 (IDO (SKOV-3 cells)): + (+ = pIC50 4.50-<5.00)

Cc1ccccc1C1CCN(CCNC(=O)c2cc3cc(Cl)ccc3[nH]2)C1 (stereo not drawn) [Compound 118]
TDO cellular assay (A172) pIC50 (TDO (A172 cells)): + (+ = pIC50 4.50-<5.00)
IDO cellular assay (SKOV3) pIC50 (IDO (SKOV-3 cells)): ++ (++ = pIC50 5.00-<5.50)

C[C@H](NS(=O)(=O)c1cc2cc(F)ccc2[nH]1)c1ccccc1 [Compound 123]
TDO cellular assay (A172) pIC50 (TDO (A172 cells)): + (+ = pIC50 4.50-<5.00)
IDO cellular assay (SKOV3) pIC50 (IDO (SKOV-3 cells)): ++ (++ = pIC50 5.00-<5.50)

COc1ccc2cc(C(=O)NC3(c4ccccc4)CC3)[nH]c2c1 [Compound 162]
TDO cellular assay (A172) pIC50 (TDO (A172 cells)): − (− = pIC50 <4.50)
IDO cellular assay (SKOV3) pIC50 (IDO (SKOV-3 cells)): ++ (++ = pIC50 5.00-<5.50)

O=C(NC1(c2ccccc2)COC1)c1cc2cc(Cl)cnc2[nH]1 [Compound 171]
TDO cellular assay (A172) pIC50 (TDO (A172 cells)): − (− = pIC50 <4.50)
IDO cellular assay (SKOV3) pIC50 (IDO (SKOV-3 cells)): +++ (+++ = pIC50 ≥5.50)

Cn1cc(C2(NC(=O)c3cc4cc(C(F)(F)F)ccc4[nH]3)CC2)cn1 [Compound 168]
TDO cellular assay (A172) pIC50 (TDO (A172 cells)): + (+ = pIC50 4.50-<5.00)
IDO cellular assay (SKOV3) pIC50 (IDO (SKOV-3 cells)): +++ (+++ = pIC50 ≥5.50)

C[C@@H](NC(=O)c1cc2cc(Cl)ccc2[nH]1)c1ccccc1 [Compound 48]
IC50 (TDO (A172 cells); read-out: TDO cellular assay (A172) pIC50 (converted)): 3.16 to 10 µM
IC50 (IDO (SKOV-3 cells); read-out: IDO cellular assay (SKOV3) pIC50 (converted)): ≤ 3.16 µM

CC(NC(=O)c1cc2cc(Cl)ccc2[nH]1)c1noc(-c2ccccc2)n1 (stereo not drawn) [Compound 134]
TDO cellular assay (A172) pIC50 (TDO (A172 cells)): − (− = pIC50 <4.50)
IDO cellular assay (SKOV3) pIC50 (IDO (SKOV-3 cells)): +++ (+++ = pIC50 ≥5.50)

CN(C)c1ncc2c(n1)CCC[C@H]2NC(=O)c1cc2cc(F)ccc2[nH]1 [Compound 8]
TDO cellular assay (A172) pIC50 (TDO (A172 cells)): − (− = pIC50 <4.50)
IDO cellular assay (SKOV3) pIC50 (IDO (SKOV-3 cells)): + (+ = pIC50 4.50-<5.00)

Cc1cc(C2(NC(=O)c3cc4cc(Cl)ccc4[nH]3)CC2)no1 [Compound 217]
TDO cellular assay (A172) pIC50 (TDO (A172 cells)): − (− = pIC50 <4.50)
IDO cellular assay (SKOV3) pIC50 (IDO (SKOV-3 cells)): +++ (+++ = pIC50 ≥5.50)

CC(Cc1cnn(C)c1)NC(=O)c1cc2cc(Cl)ccc2[nH]1 (stereo not drawn) [Compound 267]
TDO cellular assay (A172) pIC50 (TDO (A172 cells)): ++ (++ = pIC50 5.00-<5.50)
IDO cellular assay (SKOV3) pIC50 (IDO (SKOV-3 cells)): +++ (+++ = pIC50 ≥5.50)

C[C@@H](NC(=O)c1cc2cc(F)ccc2n1C)c1ccccc1 [Compound 46]
TDO cellular assay (A172) pIC50 (TDO (A172 cells)): − (− = pIC50 <4.50)
IDO cellular assay (SKOV3) pIC50 (IDO (SKOV-3 cells)): ++ (++ = pIC50 5.00-<5.50)

C[C@@H](NC(=O)c1cc2cc(Cl)ccc2[nH]1)c1ccc(Cl)cc1 [Compound 72]
TDO cellular assay (A172) pIC50 (TDO (A172 cells)): − (− = pIC50 <4.50)
IDO cellular assay (SKOV3) pIC50 (IDO (SKOV-3 cells)): +++ (+++ = pIC50 ≥5.50)

CC(NC(=O)c1cc2c(Cl)c(Cl)ccc2[nH]1)c1cccnc1 (stereo not drawn) [Compound 21]
TDO cellular assay (A172) pIC50 (TDO (A172 cells)): − (− = pIC50 <4.50)
IDO cellular assay (SKOV3) pIC50 (IDO (SKOV-3 cells)): ++ (++ = pIC50 5.00-<5.50)

O=C(NC1(c2ccccc2)CCCCC1)c1cc2cc(Cl)ccc2[nH]1 [Compound 240]
TDO cellular assay (A172) pIC50 (TDO (A172 cells)): − (− = pIC50 <4.50)
IDO cellular assay (SKOV3) pIC50 (IDO (SKOV-3 cells)): +++ (+++ = pIC50 ≥5.50)

Cc1cccc2[nH]c(C(=O)NC(C)c3ccccc3)cc12 (stereo not drawn) [Compound 77]
TDO cellular assay (A172) pIC50 (TDO (A172 cells)): + (+ = pIC50 4.50-<5.00)
IDO cellular assay (SKOV3) pIC50 (IDO (SKOV-3 cells)): +++ (+++ = pIC50 ≥5.50)

CC(NC(=O)c1cc2cc(Cl)ccc2[nH]1)c1ccccc1 (stereo not drawn) [Compound 25]
TDO cellular assay (A172) pIC50 (TDO (A172 cells)): +++ (+++ = pIC50 ≥5.50)
IDO cellular assay (SKOV3) pIC50 (IDO (SKOV-3 cells)): +++ (+++ = pIC50 ≥5.50)

CC(NC(=O)c1cc2cc(OCc3ccccc3)ccc2[nH]1)c1cnn(C)c1 (stereo not drawn) [Compound 239]
TDO cellular assay (A172) pIC50 (TDO (A172 cells)): − (− = pIC50 <4.50)
IDO cellular assay (SKOV3) pIC50 (IDO (SKOV-3 cells)): + (+ = pIC50 4.50-<5.00)

CCn1cc(C2(NC(=O)c3cc4cc(Cl)ccc4[nH]3)CC2)cn1 [Compound 214]
TDO cellular assay (A172) pIC50 (TDO (A172 cells)): − (− = pIC50 <4.50)
IDO cellular assay (SKOV3) pIC50 (IDO (SKOV-3 cells)): +++ (+++ = pIC50 ≥5.50)

CC(NC(=O)c1cc2cc(Cl)c(F)cc2[nH]1)c1cnn(C)c1 (stereo not drawn) [Compound 203]
TDO cellular assay (A172) pIC50 (TDO (A172 cells)): + (+ = pIC50 4.50-<5.00)
IDO cellular assay (SKOV3) pIC50 (IDO (SKOV-3 cells)): ++ (++ = pIC50 5.00-<5.50)

Cn1cc(C2(NC(=O)c3cc4cc(Cl)ccc4[nH]3)CCC2)cn1 [Compound 215]
TDO cellular assay (A172) pIC50 (TDO (A172 cells)): − (− = pIC50 <4.50)
IDO cellular assay (SKOV3) pIC50 (IDO (SKOV-3 cells)): +++ (+++ = pIC50 ≥5.50)

CCOc1ccc2[nH]c(C(=O)NC3(c4cnn(C)c4)CC3)cc2c1 [Compound 273]
TDO cellular assay (A172) pIC50 (TDO (A172 cells)): − (− = pIC50 <4.50)
IDO cellular assay (SKOV3) pIC50 (IDO (SKOV-3 cells)): +++ (+++ = pIC50 ≥5.50)
